These are literature values, as cited in patent publication US20190160050A1, “SMALL MOLECULE INHIBITION FOR PREVENTING OR TREATING FIBROTIC DISEASES” (THE REGENTS OF THE UNIVERSITY OF CALIFORNIA, priority 2016, published 2019).

One series concerns JNK. To be noted: read-out: IC50 as competitive inhibitor of JNK.
The next series has as its system Akt/PKB. Particulars: read-out: IC50 (Akt/PKB inhibitor).
A further series concerns the target c-fms (Homo sapiens, UniProt P07333). Particulars: read-out: IC50 for c-fms tyrosine kinase.
Series [1] deals with vascular endothelial growth factor receptor 2 (Homo sapiens, UniProt P35968).
The target in a further series is Lck (Homo sapiens, UniProt P06239).
Another series addresses Src (Homo sapiens, UniProt P12931).

pIC50: −log10 of the molar value.

Sequence of Lck (P06239 whole entry, species assumed): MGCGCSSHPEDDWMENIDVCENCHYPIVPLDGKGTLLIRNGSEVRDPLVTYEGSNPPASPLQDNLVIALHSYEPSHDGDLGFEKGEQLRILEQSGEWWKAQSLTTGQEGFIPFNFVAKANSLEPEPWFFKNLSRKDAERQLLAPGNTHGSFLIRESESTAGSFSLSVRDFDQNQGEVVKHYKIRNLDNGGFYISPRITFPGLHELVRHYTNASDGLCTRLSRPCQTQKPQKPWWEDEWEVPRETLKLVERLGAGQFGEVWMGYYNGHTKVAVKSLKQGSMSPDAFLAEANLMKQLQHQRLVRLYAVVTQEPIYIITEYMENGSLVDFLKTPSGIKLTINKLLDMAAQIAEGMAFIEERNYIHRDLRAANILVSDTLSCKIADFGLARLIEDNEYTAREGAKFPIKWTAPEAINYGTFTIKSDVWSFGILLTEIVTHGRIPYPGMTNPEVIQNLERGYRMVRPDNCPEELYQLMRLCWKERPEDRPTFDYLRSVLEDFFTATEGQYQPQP
Sequence of vascular endothelial growth factor receptor 2 (P35968 20-1356, species assumed): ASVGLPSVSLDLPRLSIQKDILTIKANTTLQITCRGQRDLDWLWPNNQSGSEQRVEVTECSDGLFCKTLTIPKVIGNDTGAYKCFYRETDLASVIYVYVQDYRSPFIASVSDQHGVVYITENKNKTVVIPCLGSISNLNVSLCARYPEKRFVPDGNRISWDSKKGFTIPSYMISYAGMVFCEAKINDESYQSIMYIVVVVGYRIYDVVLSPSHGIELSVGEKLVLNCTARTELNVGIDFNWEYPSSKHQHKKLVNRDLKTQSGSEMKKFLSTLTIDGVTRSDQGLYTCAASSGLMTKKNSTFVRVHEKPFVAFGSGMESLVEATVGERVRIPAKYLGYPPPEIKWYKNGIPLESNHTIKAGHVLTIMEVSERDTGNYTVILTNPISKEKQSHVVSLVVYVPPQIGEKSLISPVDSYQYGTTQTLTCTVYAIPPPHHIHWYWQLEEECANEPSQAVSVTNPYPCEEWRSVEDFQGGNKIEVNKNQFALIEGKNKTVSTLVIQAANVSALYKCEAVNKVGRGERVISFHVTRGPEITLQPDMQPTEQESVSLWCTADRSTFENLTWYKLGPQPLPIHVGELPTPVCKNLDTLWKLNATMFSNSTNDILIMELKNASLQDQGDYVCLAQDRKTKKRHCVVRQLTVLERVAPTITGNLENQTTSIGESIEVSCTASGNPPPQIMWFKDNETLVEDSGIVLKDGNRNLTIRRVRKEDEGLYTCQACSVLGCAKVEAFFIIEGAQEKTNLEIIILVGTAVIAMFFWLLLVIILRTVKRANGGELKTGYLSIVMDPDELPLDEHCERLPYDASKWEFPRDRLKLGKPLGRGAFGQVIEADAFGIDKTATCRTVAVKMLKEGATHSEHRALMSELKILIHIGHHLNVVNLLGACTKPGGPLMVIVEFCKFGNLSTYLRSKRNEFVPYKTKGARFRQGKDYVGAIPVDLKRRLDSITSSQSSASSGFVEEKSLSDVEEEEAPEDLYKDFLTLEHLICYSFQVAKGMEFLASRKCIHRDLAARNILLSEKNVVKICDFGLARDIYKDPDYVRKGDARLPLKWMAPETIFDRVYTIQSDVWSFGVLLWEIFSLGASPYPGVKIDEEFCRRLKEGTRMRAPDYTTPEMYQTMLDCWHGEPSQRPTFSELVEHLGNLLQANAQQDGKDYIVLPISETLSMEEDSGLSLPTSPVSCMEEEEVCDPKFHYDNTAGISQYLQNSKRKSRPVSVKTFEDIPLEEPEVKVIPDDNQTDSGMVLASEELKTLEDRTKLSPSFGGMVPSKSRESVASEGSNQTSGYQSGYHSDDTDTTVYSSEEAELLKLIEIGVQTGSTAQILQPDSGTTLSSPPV
Sequence of c-fms (P07333 20-972): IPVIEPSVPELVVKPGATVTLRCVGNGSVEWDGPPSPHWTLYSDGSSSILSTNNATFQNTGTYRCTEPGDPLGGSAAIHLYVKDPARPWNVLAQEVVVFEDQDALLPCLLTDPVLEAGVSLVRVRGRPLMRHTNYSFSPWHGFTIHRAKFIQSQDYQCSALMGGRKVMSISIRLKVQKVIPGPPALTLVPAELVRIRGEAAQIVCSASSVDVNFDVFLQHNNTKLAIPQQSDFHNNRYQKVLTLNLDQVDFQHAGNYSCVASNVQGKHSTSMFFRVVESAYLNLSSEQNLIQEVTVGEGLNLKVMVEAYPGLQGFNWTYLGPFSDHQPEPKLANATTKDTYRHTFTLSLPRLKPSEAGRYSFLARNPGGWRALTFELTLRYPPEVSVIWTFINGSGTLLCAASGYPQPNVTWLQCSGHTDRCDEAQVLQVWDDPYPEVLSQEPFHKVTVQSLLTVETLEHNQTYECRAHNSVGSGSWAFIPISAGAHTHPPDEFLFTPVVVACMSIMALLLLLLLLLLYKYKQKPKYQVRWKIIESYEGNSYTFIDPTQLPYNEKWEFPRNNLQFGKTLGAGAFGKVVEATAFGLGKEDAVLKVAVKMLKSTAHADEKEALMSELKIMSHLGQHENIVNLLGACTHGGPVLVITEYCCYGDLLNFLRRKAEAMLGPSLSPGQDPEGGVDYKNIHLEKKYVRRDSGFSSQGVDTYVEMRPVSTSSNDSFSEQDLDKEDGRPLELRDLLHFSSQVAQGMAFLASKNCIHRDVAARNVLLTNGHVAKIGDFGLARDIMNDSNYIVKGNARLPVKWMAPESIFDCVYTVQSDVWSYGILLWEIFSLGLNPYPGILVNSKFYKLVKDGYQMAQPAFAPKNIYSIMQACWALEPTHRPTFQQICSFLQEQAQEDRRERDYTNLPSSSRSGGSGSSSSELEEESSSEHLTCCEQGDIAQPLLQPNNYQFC
Sequence of Src (P12931 whole entry, species assumed): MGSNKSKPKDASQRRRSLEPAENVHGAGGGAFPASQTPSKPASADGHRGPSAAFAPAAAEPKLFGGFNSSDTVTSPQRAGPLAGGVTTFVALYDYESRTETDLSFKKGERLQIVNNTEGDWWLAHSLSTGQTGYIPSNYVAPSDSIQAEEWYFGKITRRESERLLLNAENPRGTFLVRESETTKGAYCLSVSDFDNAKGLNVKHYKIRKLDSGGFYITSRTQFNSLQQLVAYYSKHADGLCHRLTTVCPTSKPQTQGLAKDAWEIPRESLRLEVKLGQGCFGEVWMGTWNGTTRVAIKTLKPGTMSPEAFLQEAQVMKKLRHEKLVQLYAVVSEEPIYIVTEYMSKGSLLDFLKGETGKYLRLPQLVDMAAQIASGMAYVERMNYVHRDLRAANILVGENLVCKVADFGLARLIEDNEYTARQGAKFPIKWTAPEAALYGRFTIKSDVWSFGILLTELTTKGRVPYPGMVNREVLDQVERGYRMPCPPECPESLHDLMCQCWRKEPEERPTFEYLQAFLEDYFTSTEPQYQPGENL

As to `O=c1[nH]nc(Sc2ncc([N+](=O)[O-])s2)n1-c1ccc2c(c1)OCCO2` [BI 78D3, 4-(2,3-dihydro-1,4-benzodioxin-6-yl)-2,4-dihydro-5-[(5-nitro-2-thiazolyl)thio]-3H-1,2,4-triazol-3-one], the pIC50 with JNK was 6.55.
For `NC(=S)N/N=C/c1coc2ccccc2c1=O.[Cl][Cu][Cl]` [FPA 124], the pIC50 with Akt/PKB is 7.00.
Consider `COc1cc2ncnc(Nc3ccc(Oc4ccccc4)cc3)c2cc1OC` [Src Inhibitor-1, 4-(4′-Phenoxyanilino)-6,7-dimethoxyquinazoline, 6,7-Dimethoxy-N-(4-phenoxyphenyl)-4-quinazolinamine], for which the pIC50 at c-fms was 4.52; in series [1], 6.49; on Lck, 7.06; on Src, 7.36.
